# Results reported in patent publication EP0237472A2, “An ameliorating agent for pulmonary fibrosis and the use thereof” (Zyma SA, priority 1986, dated 1987).
# Assays:
# [1] = acute oral toxicity (LD50) to male mice; conditions: mouse, in vivo
# [2] = test system: female Sprague-Dawley rats; assay: CCl4-induced lung fibrosis (lung collagen accumulation) in rats; type: in vivo
# Experimental: The animals used were female Sprague-Dawley rats fed on a commercial diet (Hankkija Cy, Helsinki, Finland). Forty rats were divided into four groups of 10, the first serving as a control group. In order to investigate the effect of Compound 4 on lung collagen accumulation, the injury was induced by injecting carbon tetrachloride (CC14) intraperitoneally at doses of 0.1 ml/100 g body weight (diluted with an equal volume of paraffin oil) twice a week for 40 days. The third group received simultaneous doses of CCl4 and Compound 4. Compound 4 was suspended in arabic gum and given by gastric intubation at doses of 100 mg/kg body weight 5 times weekly for 40 days. The fourth group received only Compound 4. Two animals both in the CC14 group died during the experiment.
# At the end of the experiment, the rats were anaesthetized with ether, weighed, and decapitated. The lungs were rapidly removed, weighed and the right one of them stored at -70°C until assayed. Tissue specimens for the determination of hydroxyproline and total protein were homogenized with an Ultra-Turrax homogenizer at 0°C in 0.5 M acetic acid (5 ml/g of tissue), dialyzed against 0.5 M acetic acid, and hydrolyzed in 6 M HC1 at 120°C overnight. Tissue hydroxyproline was assayed by the method of Kivirikko et al. and tissue total protein using the a-amino nitrogen method of Rubinstein and Pryce.
# The left lung was fixed by slowly injecting a 4% formaldehyde and 1% glutaraldehyde solution into the main bronchus with the 1 ml syringe under magnifying lens control. Inflation of the lungs with fixative was continued until the pleura was smooth and the organ appeared to be filled. The bronchus was then left unclosed and the lungs were placed in the same solution until fixed. When the bronchus is left unclosed, the human lungs, at least, seem to assume a fairly constant volume during fixation, a little greater than the functional residual capacity. The lungs were then sliced sagittally and the slices embedded in paraffin. Sections were cut at 5 µm and stained with heamatoxylin-eosin, Pearl's iron, van Gieson's and Verhoeff's elastic stains.
# [3] = CCl4 + Compound 4 (group M+I), CCl4 0.1 ml/100 g i.p. twice a week, Compound 4 100 mg/kg orally 5 times weekly, 40 days
# [4] = Compound 4 alone (group M), 100 mg/kg by gastric intubation 5 times weekly for 40 days, no CCl4
compound,measurement,setting,value
COC(=O)C(C(=O)OC)=C1SC=CS1 [Compound 1],LD50,[1],> 6000 mg/kg
CCOC(=O)C(C(=O)OCC)=C1SC=CS1 [Compound 2],LD50,[1],4900 mg/kg
CCCOC(=O)C(C(=O)OCCC)=C1SC=CS1 [Compound 3],LD50,[1],> 6000 mg/kg
CC(C)OC(=O)C(C(=O)OC(C)C)=C1SC=CS1 [Compound 4],Lung relative protein (mg/g of lung weight),[2]; [3],20.61±2.05 mg/g of lung weight
same,Lung total protein (mg/lungs),[2]; [3],40.07±6.05 mg/lungs
same,Lung weight/ body weight (%),[2]; [3],0.89±0.17%
same,total hydroxyproline content of the lungs,"[2]; CCl4 + Compound 4, 100 mg/kg orally, 40 days (Figure 1)",normalized the values
same,foci of necrotic alveolar walls,"[2]; CCl4 + Compound 4, histology",All the lungs showed some foci of necrotic alveolar walls
same,interstitial fibrosis,"[2]; CCl4 + Compound 4 compared with CCl4-induced rats without Compound 4, histology",less interstitial fibrosis
same,Lung relative protein (mg/g of lung weight),[2]; [4],22.20±2.76 mg/g of lung weight
same,Lung total protein (mg/lungs),[2]; [4],38.31±4.90 mg/lungs
same,Lung weight/ body weight (%),[2]; [4],0.81±0.12%
same,lungs exhibiting a fairly normal alveolar pattern,"[2]; rats which received CCl4 and Compound 4, histology",Five out of the nine
same,lungs showing variable evidence of inflammatory reaction with minimal oedema,"[2]; rats which received CCl4 and Compound 4, nine lungs, histology",four
same,alveolar pattern in the lungs,"[2]; ten rats which received Compound 4 alone, histology",normal
CCCCOC(=O)C(C(=O)OCCCC)=C1SC=CS1 [Compound 5],LD50,[1],> 6000 mg/kg
CC(C)COC(=O)C(C(=O)OCC(C)C)=C1SC=CS1 [Compound 6],LD50,[1],4700 mg/kg
CCOC(=O)C(C(=O)OC(C)C)=C1SC=CS1 [Compound 7],LD50,[1],2700 mg/kg
COC(=O)C(C(=O)OCC(C)C)=C1SC=CS1 [Compound 8],LD50,[1],5800 mg/kg
